For data set [1], the target named is T1, PI 3-kinase delta (Homo sapiens, UniProt O00329). The data set is described as follows: TR-FRET Adapta assay, assay F.
The subject of data set [2] is IL-8-induced neutrophil shape change in human whole blood. The data set is described as follows: Whole blood neutrophil shape change assay (L). The data set is classed as cell-based. The note with it: IL-8, human whole blood, read-out: Assay L WBSC IC50.
Data set [3] has as its target T1, PI 3-kinase delta. The data set is described as follows: Cellular assay J1, p-Akt (S473) in Rat-1 cells, Surefire format. The format is cell-based. To be noted: non-asterisked data: version J1 (Surefire format), Rat-1 cells; read-out: Assay J PI3Kδ IC50.
The target of data set [4] is T2, PI 3-kinase beta (Homo sapiens, UniProt P42338). The data set is described as follows: Kinase Glo Luminescent Kinase Assay (Kglo), assay B. The format is biochemical. To be noted: read-out: Assay B PI3Kβ IC50. A general note: Kinase-Glo reads ATP consumption through a luciferase reaction.
Target sequence in this assay (P42338 whole entry): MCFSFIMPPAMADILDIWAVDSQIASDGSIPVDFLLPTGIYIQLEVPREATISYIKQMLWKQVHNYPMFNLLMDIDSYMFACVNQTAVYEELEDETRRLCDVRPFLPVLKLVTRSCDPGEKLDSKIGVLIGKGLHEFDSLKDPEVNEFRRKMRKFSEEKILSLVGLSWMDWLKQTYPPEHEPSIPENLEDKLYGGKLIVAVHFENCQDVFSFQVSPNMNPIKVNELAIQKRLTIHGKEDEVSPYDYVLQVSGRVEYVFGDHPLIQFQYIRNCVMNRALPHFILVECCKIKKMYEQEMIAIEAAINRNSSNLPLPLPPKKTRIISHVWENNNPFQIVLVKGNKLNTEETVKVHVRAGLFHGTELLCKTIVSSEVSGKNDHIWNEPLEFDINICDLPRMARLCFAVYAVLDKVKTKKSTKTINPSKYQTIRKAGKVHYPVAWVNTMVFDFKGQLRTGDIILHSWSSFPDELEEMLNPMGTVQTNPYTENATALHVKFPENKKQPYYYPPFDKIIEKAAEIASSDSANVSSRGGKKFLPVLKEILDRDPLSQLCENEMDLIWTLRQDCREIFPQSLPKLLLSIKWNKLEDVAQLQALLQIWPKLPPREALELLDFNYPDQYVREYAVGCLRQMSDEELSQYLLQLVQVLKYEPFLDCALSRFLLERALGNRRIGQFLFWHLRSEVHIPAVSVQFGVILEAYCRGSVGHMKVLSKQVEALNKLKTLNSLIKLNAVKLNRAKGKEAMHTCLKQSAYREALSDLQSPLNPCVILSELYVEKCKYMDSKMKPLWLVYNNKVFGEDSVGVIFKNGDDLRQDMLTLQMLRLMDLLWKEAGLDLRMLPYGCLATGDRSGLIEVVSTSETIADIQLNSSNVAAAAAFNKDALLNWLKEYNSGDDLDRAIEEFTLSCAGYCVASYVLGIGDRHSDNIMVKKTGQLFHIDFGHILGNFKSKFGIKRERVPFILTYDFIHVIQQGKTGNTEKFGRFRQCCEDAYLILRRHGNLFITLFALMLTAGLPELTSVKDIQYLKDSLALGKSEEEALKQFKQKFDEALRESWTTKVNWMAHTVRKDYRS
Target sequence in this assay (P27986 461-568 partner): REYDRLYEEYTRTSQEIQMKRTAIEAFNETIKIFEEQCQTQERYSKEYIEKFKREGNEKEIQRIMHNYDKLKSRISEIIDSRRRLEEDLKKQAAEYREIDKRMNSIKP
For data set [5], the target named is mTOR (Homo sapiens, UniProt P42345). The data set is described as follows: Lanthascreen kinase binding assay, assay G. The note with it: read-out: Assay G mTOR IC50. (In general: In TR-FRET formats the signal depends on donor and acceptor labels being close together.)
Experimental: Lanthascreen™ Kinase Binding Assay for mTOR (G)
Binding of an inhibitor to the kinase competes for binding with the tracer, resulting in a loss of FRET.
50 nL of compound dilutions were dispensed onto white 384-well small volume polystyrene plate.
Data set [6] deals with T2, PI 3-kinase beta. The data set is described as follows: Cellular assay I1, p-Akt (S473) in Rat-1 cells, Surefire format. The data set is classed as cell-based. To be noted: non-asterisked data: version I1 (Surefire format), Rat-1 cells; read-out: Assay I PI3Kβ IC50.
Target sequence in this assay (P42338 whole entry): as the sequence (P42338 whole entry) above
Target sequence in this assay (Q63787 whole entry partner): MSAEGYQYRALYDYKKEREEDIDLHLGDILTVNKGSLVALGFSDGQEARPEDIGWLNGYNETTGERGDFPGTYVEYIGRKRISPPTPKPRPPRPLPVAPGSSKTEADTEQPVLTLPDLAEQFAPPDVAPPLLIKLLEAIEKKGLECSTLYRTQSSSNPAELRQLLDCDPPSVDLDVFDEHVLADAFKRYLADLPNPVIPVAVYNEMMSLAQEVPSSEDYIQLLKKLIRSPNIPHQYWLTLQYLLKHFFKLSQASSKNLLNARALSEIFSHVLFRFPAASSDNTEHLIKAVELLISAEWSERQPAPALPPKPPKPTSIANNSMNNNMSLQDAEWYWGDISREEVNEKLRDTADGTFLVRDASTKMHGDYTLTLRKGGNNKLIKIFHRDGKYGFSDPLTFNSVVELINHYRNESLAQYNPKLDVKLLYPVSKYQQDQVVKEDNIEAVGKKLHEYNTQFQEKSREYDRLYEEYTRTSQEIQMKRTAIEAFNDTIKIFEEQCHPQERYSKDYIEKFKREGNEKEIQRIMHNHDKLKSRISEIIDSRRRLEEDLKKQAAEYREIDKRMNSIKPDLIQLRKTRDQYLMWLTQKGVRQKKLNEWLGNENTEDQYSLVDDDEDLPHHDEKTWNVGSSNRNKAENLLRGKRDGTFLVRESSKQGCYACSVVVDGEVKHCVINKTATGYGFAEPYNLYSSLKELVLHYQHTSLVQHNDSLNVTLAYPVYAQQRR
Text: (§1) Cellular Assays for PI 3-Kinase Alpha (H1), Beta (I1) and Delta (J1): Surefire Format
(§2) AlphaScreen (Amplified Luminescent Proximity Homogeneous Assay, ALPHA, Perkin Elmer) is a non-radioactive bead-based proximity assay technology to study biomolecular interactions in a homogenous microtiter plate format. The brand name SureFire denotes AlphaScreen assays that are adapted to quantify the phosphorylation of endogenous cellular proteins in cell lysates, by using matched antibody pairs, which consist of an anti-phospho-kinase and an anti-kinase antibody. The assay allows characterization of kinase signaling in cells as well as measurement of kinase inhibitor effects.
(§3) Using Rat-1 cells stably expressing myr-HA-tagged versions of the human PI3Kdelta, PI3Kalpha, or PI3Kbeta p110 catalytic subunit isoforms, the assay was developed as a two-plate protocol in a 384-well format.
(§4) For compound testing, the cells were seeded at a density of 4000 (Rat-1_PI3Kdelta), 7500 (Rat-1_PI3Kalpha), or 6200 (Rat-1_PI3Kbeta) cells in 20 μl complete growth medium into cell culture treated 384-well plates and were grown at 37° C./5% CO2/90% humidity for 24 h. Shortly before compound transfer, the complete medium was removed, 30 μl assay buffer (DMEM high glucose, 1×MEM NEAA, 10 mM HEPES, 2 mM L-glutamine, 0.1% (w/v) BSA) was added and 10 μl of the compound predilutions were transferred to the cells.
For data set [7], the target named is PI 3-kinase gamma (Homo sapiens, UniProt P48736). The data set is described as follows: TR-FRET Adapta assay, assay E. The data set is classed as biochemical. To be noted: read-out: Assay E PI3Kγ IC50.
Sequence of PI 3-kinase gamma (P48736 whole entry): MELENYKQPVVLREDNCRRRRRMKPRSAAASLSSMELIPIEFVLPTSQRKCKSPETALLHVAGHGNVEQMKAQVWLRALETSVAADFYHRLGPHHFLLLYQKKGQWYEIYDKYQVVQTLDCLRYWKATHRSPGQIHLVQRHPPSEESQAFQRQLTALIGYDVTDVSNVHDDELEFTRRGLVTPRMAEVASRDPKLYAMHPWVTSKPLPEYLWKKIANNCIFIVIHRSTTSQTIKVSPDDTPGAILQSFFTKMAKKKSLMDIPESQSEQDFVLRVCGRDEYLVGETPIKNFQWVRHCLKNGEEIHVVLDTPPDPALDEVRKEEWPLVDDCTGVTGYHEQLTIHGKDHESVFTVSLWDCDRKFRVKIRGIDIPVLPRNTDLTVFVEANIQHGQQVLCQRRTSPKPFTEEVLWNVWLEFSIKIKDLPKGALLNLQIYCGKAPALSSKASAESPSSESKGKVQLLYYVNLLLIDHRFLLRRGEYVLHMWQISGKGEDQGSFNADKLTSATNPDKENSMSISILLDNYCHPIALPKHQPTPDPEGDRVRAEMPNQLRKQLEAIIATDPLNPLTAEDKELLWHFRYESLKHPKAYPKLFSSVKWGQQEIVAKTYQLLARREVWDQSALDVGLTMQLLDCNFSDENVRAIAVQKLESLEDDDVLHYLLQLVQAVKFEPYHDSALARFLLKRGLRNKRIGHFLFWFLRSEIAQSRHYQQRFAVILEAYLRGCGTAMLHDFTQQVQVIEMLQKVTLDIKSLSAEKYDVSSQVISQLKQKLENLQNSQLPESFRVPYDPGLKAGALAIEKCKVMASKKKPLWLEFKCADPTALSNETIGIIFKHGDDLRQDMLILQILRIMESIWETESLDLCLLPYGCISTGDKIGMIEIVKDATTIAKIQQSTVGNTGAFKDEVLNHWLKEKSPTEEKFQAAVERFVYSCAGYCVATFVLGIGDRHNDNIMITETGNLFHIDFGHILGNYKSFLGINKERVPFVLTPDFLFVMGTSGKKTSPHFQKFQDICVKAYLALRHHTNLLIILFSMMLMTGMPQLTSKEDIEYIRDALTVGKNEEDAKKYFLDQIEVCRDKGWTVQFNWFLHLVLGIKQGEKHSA
Data set [8] in a line: Microsomal clearance assay (M). The note with it: intrinsic clearance in rat liver microsomes. For orientation: Liver microsomes are vesicles of endoplasmic reticulum, rich in cytochrome P450 enzymes.
Experimental: The experiments were performed in 96-well glass plates at 37° C. on an automated Tecan EVO platform. Test compounds at a concentration of 10 mM in pure DMSO were diluted 1:1000 in water to 10 μM. […] Reactions were initiated by the addition of 150 μL of a cofactor solution containing 2 mM NADPH.
In data set [9] the target is Vps34 (Homo sapiens, UniProt Q8NEB9). The data set is described as follows: Kinase Glo Luminescent Kinase Assay (Kglo), assay C. The format is biochemical. To be noted: read-out: Assay C VPS34 IC50.
Data set [10] concerns the target PI 4-kinase beta (Homo sapiens, UniProt Q9UBF8). The data set is described as follows: Kinase Glo Luminescent Kinase Assay (Kglo), assay D. The note with it: read-out: Assay D PI4Kβ IC50. The format is biochemical.
Data set [11] deals with T3, PI 3-kinase alpha (Homo sapiens, UniProt P42336). Briefly: Cellular assay H1, p-Akt (S473) in Rat-1 cells, Surefire format. The format is cell-based. The note with it: non-asterisked data: version H1 (Surefire format), Rat-1 cells; read-out: Assay H PI3Kα IC50.
Target sequence in this assay (P42336 whole entry): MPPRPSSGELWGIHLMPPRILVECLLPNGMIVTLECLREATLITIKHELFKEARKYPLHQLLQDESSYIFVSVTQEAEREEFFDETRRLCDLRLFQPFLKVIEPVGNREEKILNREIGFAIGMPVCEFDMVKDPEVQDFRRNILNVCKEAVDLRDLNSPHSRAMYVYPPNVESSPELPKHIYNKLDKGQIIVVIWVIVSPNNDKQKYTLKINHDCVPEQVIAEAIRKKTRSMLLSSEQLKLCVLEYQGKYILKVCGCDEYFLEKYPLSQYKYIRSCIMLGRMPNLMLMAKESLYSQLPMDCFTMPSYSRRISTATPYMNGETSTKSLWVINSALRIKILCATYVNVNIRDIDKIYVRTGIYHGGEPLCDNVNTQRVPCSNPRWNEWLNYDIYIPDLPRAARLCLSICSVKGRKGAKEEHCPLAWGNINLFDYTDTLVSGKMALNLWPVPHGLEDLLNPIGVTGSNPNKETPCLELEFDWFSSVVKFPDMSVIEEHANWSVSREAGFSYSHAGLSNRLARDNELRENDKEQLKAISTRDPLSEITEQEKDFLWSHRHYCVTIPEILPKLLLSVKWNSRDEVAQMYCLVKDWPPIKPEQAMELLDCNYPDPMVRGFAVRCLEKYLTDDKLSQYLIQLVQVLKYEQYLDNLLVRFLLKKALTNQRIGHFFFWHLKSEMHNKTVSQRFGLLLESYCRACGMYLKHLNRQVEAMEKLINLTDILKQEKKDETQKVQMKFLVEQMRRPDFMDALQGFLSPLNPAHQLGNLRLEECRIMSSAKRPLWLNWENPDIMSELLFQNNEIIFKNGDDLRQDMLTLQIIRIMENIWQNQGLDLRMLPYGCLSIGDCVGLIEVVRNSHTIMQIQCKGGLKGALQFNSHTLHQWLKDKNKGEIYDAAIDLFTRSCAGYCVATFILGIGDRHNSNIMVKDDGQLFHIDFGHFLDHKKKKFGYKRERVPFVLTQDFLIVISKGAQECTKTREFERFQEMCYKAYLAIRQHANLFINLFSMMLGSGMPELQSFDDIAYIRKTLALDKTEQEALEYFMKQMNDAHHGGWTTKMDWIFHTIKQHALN
Target sequence in this assay (Q63787 whole entry partner): as the sequence (Q63787 whole entry partner) above
Text: as §1, §2, §3, §4
Data set [12] addresses T3, PI 3-kinase alpha. The data set is described as follows: Kinase Glo Luminescent Kinase Assay (Kglo), assay A. The data set is classed as biochemical. To be noted: read-out: Assay A PI3Kα IC50.
Target sequence in this assay (P42336 whole entry): as the sequence (P42336 whole entry) above
Experimental: Kinase Glo Luminescent Kinase Assay (Kglo) for Pb 3-Kinase Alpha (A), Pb 3-Kinase Beta (B), Vps34 (C), Pb 4-Kinase Beta (D)
The Kinase Glo Luminescent Kinase Assay (Promega, Madison/Wis., USA) is a homogeneous HTS method of measuring kinase activity by quantifying the amount of ATP remaining in solution following a kinase reaction.
L-α-phosphatidylinositol (PI), provided as 10 mg/ml solution in methanol, was transferred into a glass tube and dried under a nitrogen beam. It was then resuspended in 3% OctylGlucoside (1-0-n-octyl-beta-D-glucopyranoside) by vortexing and stored at 4° C. 5 μL of a mix of PI/OctylGlucoside with the PI 3-kinase alpha and PI 3-kinase beta subtypes, or Vps34 or PI 4-kinase beta were added. Kinase reactions were started by the addition of 5 μl of an ATP-mix containing in a final volume 10 μL 10 mM TRIS-HCl pH 7.5, 3 mM MgCl2, 50 mM NaCl, 0.05% CHAPS, 1 mM DTT and 1 μM ATP at room temperature.
All fits were performed with the program XLfit4 (ID Business Solutions, Guildford, UK).

Each structure is given as a SMILES string. Where two headings read alike, the source gives them in different places. Some results are limits rather than exact numbers.

The IC50 is the midpoint of a concentration-inhibition curve.

Sequence of PI 4-kinase beta (Q9UBF8 whole entry): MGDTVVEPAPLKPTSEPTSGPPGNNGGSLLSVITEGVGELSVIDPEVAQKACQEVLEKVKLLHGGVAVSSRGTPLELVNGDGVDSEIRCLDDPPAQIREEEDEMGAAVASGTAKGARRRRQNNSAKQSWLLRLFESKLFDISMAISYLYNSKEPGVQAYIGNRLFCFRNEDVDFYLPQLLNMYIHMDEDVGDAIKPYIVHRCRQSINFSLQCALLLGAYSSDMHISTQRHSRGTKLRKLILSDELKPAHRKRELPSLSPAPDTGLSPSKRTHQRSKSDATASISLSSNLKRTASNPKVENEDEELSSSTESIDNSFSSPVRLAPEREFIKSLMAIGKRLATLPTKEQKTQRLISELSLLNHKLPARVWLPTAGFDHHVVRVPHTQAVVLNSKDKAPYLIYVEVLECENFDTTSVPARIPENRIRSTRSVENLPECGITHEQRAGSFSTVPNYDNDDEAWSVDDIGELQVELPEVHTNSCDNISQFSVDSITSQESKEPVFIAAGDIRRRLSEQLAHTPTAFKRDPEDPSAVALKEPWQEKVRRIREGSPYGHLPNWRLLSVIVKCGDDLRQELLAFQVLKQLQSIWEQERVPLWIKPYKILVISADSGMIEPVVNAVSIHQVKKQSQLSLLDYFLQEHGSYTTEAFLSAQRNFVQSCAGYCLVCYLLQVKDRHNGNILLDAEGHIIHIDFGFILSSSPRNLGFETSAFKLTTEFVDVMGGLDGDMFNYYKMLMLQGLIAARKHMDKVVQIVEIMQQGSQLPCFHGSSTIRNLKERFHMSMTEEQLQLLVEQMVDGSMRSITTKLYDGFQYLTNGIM

For the compound `Cc1ccc(S(=O)(=O)NC2CC3(CC(O)C3)C2)cc1-c1cnc(N)c(-c2cn(C)nc2C)n1` (single isomer, unassigned) [Example 9b, (R)-3-[5-Amino-6-(1,3-dimethyl-1H-pyrazol-4-yl)-pyrazin-2-yl]-N-(6-hydroxy-spiro[3.3]hept-2-yl)-4-methyl-benzenesulfonamide or (S)-3-[5-Amino-6-(1,3-dimethyl-1H-pyrazol-4-yl)-pyrazin-2-yl]-N-(6-hydroxy-spiro[3.3]hept-2-yl)-4-methyl-benzenesulfonamide], the IC50 in data set [1] (read-out: Assay F PI3Kδ IC50) was 0.24 µM; in data set [2], 335 nM; in [3] it was 7640 nM; in [4] it was 1200 nM; in [5], above 10000 nM; in data set [6], above 10000 nM. Moreover, the IC50 in [7] is 12 nM; in [9], above 10000 nM. Also, the “Assay M RLM CI(int)” value in data set [8] was 27 µL/min/mg.
Consider `Cc1ccc(S(=O)(=O)NC2CC3(CC(O)C3)C2)cc1-c1cnc(N)c(-n2cncn2)n1` (single isomer, unassigned) [Example 70a, (S)-3-(5-Amino-6-(1H-1,2,4-triazol-1-yl)pyrazin-2-yl)-N-(6-hydroxyspiro[3.3]heptan-2-yl)-4-methylbenzenesulfonamide or (R)-3-(5-Amino-6-(1H-1,2,4-triazol-1-yl)pyrazin-2-yl)-N-(6-hydroxyspiro[3.3]heptan-2-yl)-4-methylbenzenesulfonamide], for which the IC50 is 0.29 µM in data set [1] (Assay F PI3Kδ IC50 (μM)); 185 nM in data set [2]; 1410 nM in data set [3]; 750 nM in data set [4]; 2000 nM in data set [5]; 2640 nM in [6]. For the same compound, the IC50 in [10] is 4600 nM; in data set [7], 25 nM; in [11], 1920 nM; in data set [12], 110 nM; in [9], above 10000 nM. Besides, the “Assay M RLM CI(int)” value in [8] worked out at 58 µL/min/mg.
For the compound `Cc1ccc(S(=O)(=O)NC2CC3(CC(O)C3)C2)cc1-c1cnc(N)c(-n2cncn2)n1` (single isomer, unassigned) [Example 70b, (S)-3-(5-Amino-6-(1H-1,2,4-triazol-1-yl)pyrazin-2-yl)-N-(6-hydroxyspiro[3.3]heptan-2-yl)-4-methylbenzenesulfonamide or (R)-3-(5-Amino-6-(1H-1,2,4-triazol-1-yl)pyrazin-2-yl)-N-(6-hydroxyspiro[3.3]heptan-2-yl)-4-methylbenzenesulfonamide], the IC50 in [1] (Assay F PI3Kδ IC50 (μM)) was 1.1 µM; in data set [2] it was 687 nM; in data set [3], 3980 nM; in [4] it was 2500 nM; in data set [5], 5900 nM; in data set [6] it was above 10000 nM. In addition, the IC50 in data set [10] was above 10000 nM; in [7], 4 nM; in [11] it was 4060 nM; in data set [12], 840 nM; in [9] it was above 10000 nM. Further, the “Assay M RLM CI(int)” value in data set [8] is 57 µL/min/mg.
For the compound `CC(C)(O)CNS(=O)(=O)c1ccc(Cl)c(-c2cnc(N)c(-n3cncn3)n2)c1` [Example 37, 3-(5-Amino-6-(1H-1,2,4-triazol-1-yl)pyrazin-2-yl)-4-chloro-N-(2-hydroxy-2-methylpropyl)benzenesulfonamide], the IC50 in data set [1] (read-out: Assay F PI3Kδ IC50) stood at 0.73 µM; in [2] (Homo sapiens, Neutrophil), 1550 nM; in data set [3] it was 5920 nM; in data set [4], 3500 nM; in data set [5], 5900 nM; in data set [6], 1890 nM. Further, the IC50 in [10] was 3500 nM; in [7] it was 83 nM; in [11], 7910 nM; in data set [12], 1000 nM; in data set [9], above 9100 nM. Further, in data set [8], the “Assay M RLM CI(int)” value is 33 µL/min/mg.
`CC(C)(O)CCNS(=O)(=O)c1ccc(Cl)c(-c2cnc(N)c(-n3cncn3)n2)c1` [Example 38, 3-(5-Amino-6-(1H-1,2,4-triazol-1-yl)pyrazin-2-yl)-4-chloro-N-(3-hydroxy-3-methylbutyl)benzenesulfonamide]: the IC50 in [1] (read-out: Assay F PI3Kδ IC50) turned out to be 0.14 µM; in [2] (Homo sapiens, Neutrophil) it was 3380 nM; in data set [3], 2360 nM; in data set [4], 3500 nM; in data set [5] it was 8400 nM; in [6], 2110 nM. In addition, the IC50 in data set [10] is 4200 nM; in data set [7] it was 25 nM; in [11] it was 3020 nM; in data set [12], 920 nM; in [9] it was above 9100 nM. Further, the “Assay M RLM CI(int)” value in data set [8] came to 89 µL/min/mg.
As to `Cc1ccc(S(=O)(=O)N[C@H]2CC[C@H](O)CC2)cc1-c1cnc(N)c(-c2cncnc2)n1` [Example 59, Trans-3-(5-Amino-6-(pyrimidin-5-yl)pyrazin-2-yl)-N-(-4-hydroxycyclohexyl)-4-methylbenzenesulfonamide], the IC50 in data set [1] (read-out: Assay F PI3Kδ IC50) is 0.41 µM; in data set [2] (Homo sapiens, Neutrophil), 801 nM; in [3], 6420 nM; in [4] it was 5290 nM; in data set [5], 6020 nM; in data set [10], above 9100 nM. In addition, the IC50 in [7] was 105 nM; in data set [11], 8470 nM; in data set [12], 910 nM; in data set [9], above 9100 nM.
For the compound `Cc1ccc(S(=O)(=O)NC[C@H]2C[C@@H](O)C2)cc1-c1cnc(N)c(-c2nc(C3CC3)no2)n1` [Example 94, 3-(5-Amino-6-(3-cyclopropyl-1,2,4-oxadiazol-5-yl)pyrazin-2-yl)-N-(((1s,3s)-3-hydroxycyclobutyl)methyl)-4-methylbenzenesulfonamide], the IC50 was 0.57 µM in [1] (read-out: Assay F PI3Kδ IC50); 3780 nM in [2] (Homo sapiens, Neutrophil); 2090 nM in [3]; above 9100 nM in data set [4]; 8900 nM in [5]; 8960 nM in data set [6]. Moreover, the IC50 in [10] was above 9100 nM; in data set [7], 14 nM; in data set [11], 2980 nM; in data set [12] it was 1700 nM; in [9], above 9100 nM.
In the case of `Cc1ccc(S(=O)(=O)NCC(C)(C)O)cc1-c1cnc(N)c(-n2cnc(C3CC3)n2)n1` [Example 109, 3-(5-Amino-6-(3-cyclopropyl-1H-1,2,4-triazol-1-yl)pyrazin-2-yl)-N-(2-hydroxy-2-methylpropyl)-4-methyl benzenesulfonamide], the IC50 in data set [1] (read-out: Assay F PI3Kδ IC50) is 0.69 µM; in data set [2] (Homo sapiens, Neutrophil), 935 nM; in data set [3] it was 1900 nM; in data set [4], 3000 nM; in data set [6] it was above 10000 nM; in data set [10], 8600 nM. For the same compound, the IC50 is 28 nM in data set [7], 2610 nM in data set [11], 440 nM in data set [12] and above 10000 nM in data set [9]. In addition, the “Assay M RLM CI(int)” value in data set [8] is below 3.4 µL/min/mg.
With `Cc1ccc(S(=O)(=O)NCCC(C)(C)O)cc1-c1cnc(N)c(-c2nc(C3CC3)no2)n1` [Example 143, 3-(5-Amino-6-(3-cyclopropyl-1,2,4-oxadiazol-5-yl)pyrazin-2-yl)-N-(3-hydroxy-3-methylbutyl)-4-methylbenzenesulfonamide], the IC50 is 1700 nM in data set [2] (Homo sapiens, Neutrophil); 1010 nM in data set [3]; 2190 nM in [5]; 6030 nM in data set [6]; above 9100 nM in [10]; 2350 nM in data set [11]. For the same compound, the IC50 in data set [9] was above 9100 nM. For the same compound, the “Assay M RLM CI(int)” value in [8] was 134 µL/min/mg.

Values taken from patent US10004732B2 (Novartis AG, priority 2014, dated 2018).
